“And” between values parts separate entries of the source, which are not always exact repeats. Equal entries are not always repeated.
What was measured:
[1] = test system: E. coli wild-type strain JM83 (gene expression); experiment: DNA microarray analysis of mRNA levels in DHCP-treated vs control cells; type: cell-based; details: DHCP 250 μM, 8 h
Description: E. coli wild-type strain JM83 [F^− araΔ(lac-proAB) rpsL(str^r)] (Yanisch-Perron et al., 1985) was grown in Luria broth (LB). V. harveyi strains BB152 and BB170 were a gift from Dr. Bonnie Bassler (Princeton University). These strains were grown in AB medium as described previously (Surette et al., 1999).
E. coli cells grown overnight in LB medium were diluted into fresh LB medium. After the growth reached a Klett unit of 50, DHCP was added (250 μM) and growth was further monitored. After growth reached a Klett unit of 90-100, it was diluted 10-fold into a medium containing the same concentration of DHCP as described previously (Phadtare et al., 2001). The cells were harvested after a total of 8 h of incubation with DHCP. […] The total RNA was extracted by the hot phenol method described previously (Sarmientos et al., 1983). It was further purified by RNeasy Minikit (Qiagen) and was then treated with DNase I followed by phenol-chloroform treatment and ethanol precipitation. It was quantified by measuring absorbance at 260 nm. The purity of RNA was confirmed by agarose gel electrophoresis.
The mRNAs were labeled with Cy3-dUTP and Cy5-dUTP (Amersham Pharmacia). Random Hexamer pd(N)6 (Amersham Pharmacia) was used as a primer and the IntelliGene E. coli CHIP Version 1 (Takara Shuzo, Co. Ltd., Japan) the DNA microarray was used. This represents the entire ORF of E. coli K-12 W3110.
The cell densities of the control (untreated) and the DHCP-treated cells used were the same; thus, the changes seen in the microarray were not substantially influenced by the difference in cell densities. RNAs isolated from the respective cells were used to generate probes for hybridization of DNA arrays and the data were quantified as described in the Materials and Methods section of this Example. Calculation of the log expression ratios of the corresponding spots allowed pair-wise comparisons of the relative transcript levels for each of the E. coli genes under the two growth conditions. Only those genes whose expression levels differed by log ratio of at least four were considered. In some cases, genes belonging to same operon or category were considered even if the log ratios differed by the factor of only three or little less than three. Log ratios above zero value indicate induction and below zero value indicate repression by DHCP treatment. […] The results of both methods are in agreement with each other.

[2] = test system: AI-2 activity, V. harveyi reporter strain BB170; details: Schauder et al., 2001; cited from earlier work

SMILES: O=C1C=CC(O)C1O (stereo not drawn) [DHCP, 4,5-dihydroxy-2-cyclopenten-1-one]
- Increase of mRNA levels ([1]; Cys regulon genes cysA, cysD, cysH, cysI, cysJ, cysk, cysM, cysN, cysP, cysQ, cysU, cysW): 3-20 times
- Ratio (DHCP-treated/control) ([1]; gene CysH (Adenylsulphate reductase)): 6.50
- Ratio (DHCP-treated/control) ([1]; gene CysI (Sulfite reductase(NADPH) alpha subunit)): 7.30
- Ratio (DHCP-treated/control) ([1]; gene CysJ (Sulfite reductase(NADPH) beta subunit)): 4.70
- Ratio (DHCP-treated/control) ([1]; gene CysK (Cysteine synthase)): 20
- Ratio (DHCP-treated/control) ([1]; gene CysM (O-acetylserine (thiol)-lyase B)): 3.00
- Ratio (DHCP-treated/control) ([1]; gene CysN (Sulfate adenylyltransferase)): 5.00
- Ratio (DHCP-treated/control) ([1]; gene CysP (Thiosulfate-binding protein CysP precursor)): 3.55
- Ratio (DHCP-treated/control) ([1]; gene CysQ (Ammonium transport protein CysQ)): 3.28
- Ratio (DHCP-treated/control) ([1]; gene CysW (Sulfate/thiosulfate transport protein CysW)): 15.00
- Ratio (DHCP-treated/control) ([1]; gene EntA (2,3-dihydro-2,3-dihydroxybenzoate)): 0.44
- Ratio (DHCP-treated/control) ([1]; gene EntB (Isochorismatase)): 0.23
- Ratio (DHCP-treated/control) ([1]; gene EntC (Isochorismate synthase)): 0.45
- Ratio (DHCP-treated/control) ([1]; gene EntE (Enterochelin synthetase)): 0.32
- Ratio (DHCP-treated/control) ([1]; gene Fbp (Fructose-1,6-biphosphatase)): 4.00
- Ratio (DHCP-treated/control) ([1]; gene FruB (PTS system)): 0.12
- Ratio (DHCP-treated/control) ([1]; gene FruK (I-phosphofructokinase)): 0.03
- Ratio (DHCP-treated/control) ([1]; gene GalM (Aldose 1-epimerase)): 4.00
- Ratio (DHCP-treated/control) ([1]; gene Gale (UDP-glucose 4-epimerase)): 4.60
- Ratio (DHCP-treated/control) ([1]; gene MarA (Multiple antibiotic resistance protein MarA)): 5
- Ratio (DHCP-treated/control) ([1]; gene MdaB (Modulator of drug activity)): 10
- Ratio (DHCP-treated/control) ([1]; gene TalA (Patatire transaldolase)): 7.6
- Ratio (DHCP-treated/control) ([1]; gene TehB (Tellurite resistance protein TehB)): 5
- Ratio (DHCP-treated/control) ([1]; gene YidS (unknown function or class)): 4
- Ratio (DHCP-treated/control) ([1]; gene ZipA (Cell division protein)): 4.50
- Decrease of mRNA level ([1]; gene ackA): 3.6 times
- Ratio (DHCP-treated/control) ([1]; gene ansP (L-asparagine permease)): 0.29
- Ratio (DHCP-treated/control) ([1]; gene atoE (Short-chain fatty acids)): 0.17
- Ratio (DHCP-treated/control) ([1]; gene atzN (Zinc-transporting ATPase)): 11 and 11.30
- Ratio (DHCP-treated/control) ([1]; gene cheA (Chemotaxis protein CheA)): 0.25
- Ratio (DHCP-treated/control) ([1]; gene cpxP (Periplasmic protein precursor)): 4.95
- Ratio (DHCP-treated/control) ([1]; gene creD (Inner-membrane protein CreD)): 47
- Ratio (DHCP-treated/control) ([1]; gene cysU (Sulfate transport system permease)): 4.99
- Ratio (DHCP-treated/control) ([1]; gene czcD (Cation efflux protein CzcD)): 3.60
- Ratio (DHCP-treated/control) ([1]; gene dps (DNA-binding protein Dps)): 13
- Ratio (DHCP-treated/control) ([1]; gene fadL (Long-chain fatty acid transport protein)): 0.10
- Ratio (DHCP-treated/control) ([1]; gene fecA (Iron(III) dicitrate transport protein FecA)): 0.16
- Ratio (DHCP-treated/control) ([1]; gene fecB (Iron(III) dicitrate-binding protein)): 0.15
- Ratio (DHCP-treated/control) ([1]; gene fecC (FecC protein)): 0.21
- Ratio (DHCP-treated/control) ([1]; gene fecD (Iron(III) dicitrate transport system protein)): 0.15
- Ratio (DHCP-treated/control) ([1]; gene fecE (Iron(III) dicitrate transport protein)): 0.11
- Ratio (DHCP-treated/control) ([1]; gene fepA (Ferrienterochelin receptor precursor)): 0.25
- Ratio (DHCP-treated/control) ([1]; gene fepC (Ferric enterobactin transport protein FepC)): 0.40
- Inhibition of mRNA level ([1]; gene fruB): 8 times
- Inhibition of mRNA level ([1]; gene fruK): 33 times
- Ratio (DHCP-treated/control) ([1]; gene glf (UDP-galactopyranose mutase)): 0.20
- Ratio (DHCP-treated/control) ([1]; gene hdeB (10k-1 protein precursor)): 6.00
- Ratio (DHCP-treated/control) ([1]; gene katG (Catalase HPI)): 9.00
- Ratio (DHCP-treated/control) ([1]; gene lysP (Lysin-specific permease)): 0.16
- Ratio (DHCP-treated/control) ([1]; gene motA (Chemotaxis protein MotA)): 0.18
- Ratio (DHCP-treated/control) ([1]; gene motB (Chemotaxis protein MotB)): 0.40
- Ratio (DHCP-treated/control) ([1]; gene msyB (Membrane protein)): 4.25
- Ratio (DHCP-treated/control) ([1]; gene nmpC (Outer membrane porin protein precursor)): 0.01
- Ratio (DHCP-treated/control) ([1]; gene ompA (Outer membrane protein a precursor)): 0.23
- Ratio (DHCP-treated/control) ([1]; gene ompC (Outer membrane protein c precursor)): 0.20
- Ratio (DHCP-treated/control) ([1]; gene ompF (Outer membrane protein f precursor)): 0.06
- Ratio (DHCP-treated/control) ([1]; gene ompT (ProteinaseVII)): 0.11
- Ratio (DHCP-treated/control) ([1]; gene osmY (Hyperosmotically induced protein)): 12.00
- Ratio (DHCP-treated/control) ([1]; gene otsA (Tehalose-6-phosphate synthase)): 11.00
- Ratio (DHCP-treated/control) ([1]; gene pheP (phenylalanine transport protein pheP)): 0.13
- Ratio (DHCP-treated/control) ([1]; gene plsX (PlsX protein)): 0.28
- Ratio (DHCP-treated/control) ([1]; gene potA (Spermidine/putrescine transport protein A)): 0.13
- Ratio (DHCP-treated/control) ([1]; gene potB (Spermidine/putrescine transport system)): 0.13
- Ratio (DHCP-treated/control) ([1]; gene potC (Spermidine/putrescine transport system)): 0.20
- Ratio (DHCP-treated/control) ([1]; gene potD (Spermidine/putrescine transport protein D)): 0.19
- Ratio (DHCP-treated/control) ([1]; gene poxB (Pyruvate dehydrogenase)): 15.00
- Ratio (DHCP-treated/control) ([1]; gene rfc (Probably O-antigen polymerase)): 0.23
- Ratio (DHCP-treated/control) ([1]; gene rplA (Ribosomal protein L1)): 0.23
- Ratio (DHCP-treated/control) ([1]; gene rplB (Ribosomal protein L2)): 0.25
- Ratio (DHCP-treated/control) ([1]; gene rplC (Ribosomal protein L3)): 0.28
- Ratio (DHCP-treated/control) ([1]; gene rplD (Ribosomal protein L4)): 0.27
- Ratio (DHCP-treated/control) ([1]; gene rplE (Ribosomal protein L5)): 0.34
- Ratio (DHCP-treated/control) ([1]; gene rplF (Ribosomal protein L6)): 0.30
- Ratio (DHCP-treated/control) ([1]; gene rplI (Ribosomal protein L9)): 0.25
- Ratio (DHCP-treated/control) ([1]; gene rplJ (Ribosomal protein L10)): 0.28
- Ratio (DHCP-treated/control) ([1]; gene rplK (Ribosomal protein L11)): 0.39
- Ratio (DHCP-treated/control) ([1]; gene rplM (Ribosomal protein L13)): 0.49
- Ratio (DHCP-treated/control) ([1]; gene rplN (Ribosomal protein L14)): 0.44
- Ratio (DHCP-treated/control) ([1]; gene rplO (Ribosomal protein L15)): 0.36
- Ratio (DHCP-treated/control) ([1]; gene rplP (Ribosomal protein L16)): 0.36
- Ratio (DHCP-treated/control) ([1]; gene rplQ (Ribosomal protein L17)): 0.47
- Ratio (DHCP-treated/control) ([1]; gene rplR (Ribosomal protein L18)): 0.38
- Ratio (DHCP-treated/control) ([1]; gene rplS (Ribosomal protein L19)): 0.35
- Ratio (DHCP-treated/control) ([1]; gene rplV (Ribosomal protein L22)): 0.28
- Ratio (DHCP-treated/control) ([1]; gene rplW (Ribosomal protein L23)): 0.27
- Ratio (DHCP-treated/control) ([1]; gene rplX (Ribosomal protein L24)): 0.31
- Ratio (DHCP-treated/control) ([1]; gene rplY (Ribosomal protein L25)): 0.28
- Ratio (DHCP-treated/control) ([1]; gene rpmB (Ribosomal protein L28)): 0.45
- Ratio (DHCP-treated/control) ([1]; gene rpmE (Ribosomal protein L31)): 0.39
- Ratio (DHCP-treated/control) ([1]; gene rpoS (RNP polymerase sigma factor RpoS)): 4
- Ratio (DHCP-treated/control) ([1]; gene sdaC (Probable serine transport protein)): 0.25
- Ratio (DHCP-treated/control) ([1]; gene secF (Secretion protein SecF)): 0.26
- Ratio (DHCP-treated/control) ([1]; gene secG (P12 cytoplasmic membrane protein)): 0.30
- Ratio (DHCP-treated/control) ([1]; gene secY (SecY protein)): 0.40
- Ratio (DHCP-treated/control) ([1]; gene tsr (Methyl-accepting chemotaxis protein1(mcp-1))): 0.22
- Ratio (DHCP-treated/control) ([1]; gene tsx (Nucleoside-specific channel-forming protein)): 0.22
- Ratio (DHCP-treated/control) ([1]; gene wrbA (Trp repressor binding protein)): 14.00
- Ratio (DHCP-treated/control) ([1]; gene yieI (unknown function or class)): 4
- Ratio (DHCP-treated/control) ([1]; gene znu (High-affinity zinc uptake system protein)): 0.13
- Induction of CreBC-regulated genes ([1]; genes ackA, pta, radc, malE and trgB): not induced
- Induction of genes ([1]; genes astD, tnaB and gabT): not induced
- Effect on mRNA levels ([1]; genes cysG and cysS (not in Cys regulon)): not affected
- Decrease of mRNA levels ([1]; genes encoding outer membrane proteins (Omp)): 5-15 times
- Decrease of mRNA levels ([1]; genes motA, motB and cheA (motor action)): 4-6 times
- Change of mRNA levels ([1]; genes parc and parE (topoisomerase IV subunits)): did not change
- Change of mRNA levels ([1]; genes rfa, wzb or hha): did not change significantly
- Reduction of mRNA levels ([1]; most of the genes encoding ribosomal L proteins): 2-3 times
- Activity as AI-2 candidate in the screening assay [2]: did not show any activity
